Key:
antigen = test: Testing of binding reactivity of antibody after conjugation with molecular reporter on 96-well plates (HRP-labeled anti-mouse antibody, signal at 450 nm); conditions: 2 μg/mL conjugated antibody, antigen-coated 96-well plate
Protocol: The binding reactivity of antibody conjugating molecular reporter (compound 6, compound 8, and compound 14) to antigen could be tested with an immobilization of antigen on wells of 96-well plates. The molecular reporter conjugated antibody was added into the wells. The antibody would bind to the antigen coating wells. Horseradish peroxidase labeled antibody specific to mouse antibody was used as a reporter molecule for reporting binding reactivity. The results of molecular reporter conjugated antibody were compared with results of antibody without molecular reporter conjugation.
The method for testing binding reactivity of molecular reporter conjugated antibody and antigen in 96-well plate consists of the following steps. • a) Prepare 2 μg/mL of antigen in carbonate buffer containing 50 mM carbonate, pH 9.6, and immobilize antigen (100 μL/well) in 96-well plate. • b) Incubate 96-well plate in step 1 at 4° C. for 12-16 hours. • c) Block non-specific binding with 300 μL/well of 2% bovine serum albumin in phosphate-buffered saline containing 0.05% Tween (PBST), and incubate at room temperature for 1 hour. • d) Wash 96-well plates in step 3 with 300 μL/well of PBST for 3 times. • e) Add 100 μL/ well of 2 μg/mL of antibody conjugating molecular reporter (compound 6, compound 8, and compound 14), and incubate at room temperature for 1 hour. • f) Wash 96-well plates in step 5 with 300 μL/well of PBST for 3 times. • g) Add 100 μL/well of horseradish peroxidase labeled antibody specific to mouse antibody (dilution at 1:10,000), and incubate at room temperature for 1 hour. • h) Wash 96-well plates in step 7 with 300 μL/well of PBST for 3 times. • i) Add 100 μL/well of substrate solution for horseradish peroxidase which is 3,3′,5,5′-Tetramethylbenzidine, and incubate at room temperature for 30 minutes. • j) Add 50 μL/well of sulfuric acid (H2SO4) for stop reaction. • k) Measure signals at 450 nm.

SMILES: N#Cc1c(C#N)c2c(c3c1CCc1cc(OCCCCCC=O)ccc1-3)-c1ccc(OCCCCCC=O)cc1CC2 [compound 8, 8,13-bis((6-oxohexyl)oxy)-1,2,5,6-tetrahydrodibenzo[c,g]phenanthrene-3,4-dicarbonitrile]
- binding of antibody conjugating molecular reporter to antigen (FIG. 5) (antigen): antibody could bind to antigen
- effect of molecular reporter on binding reactivity of antibody compared with antibody without any conjugation (FIG. 5) (antigen): did not affect the binding reactivity of antibody
- melting point: 135 to 139 °C

SMILES: N#Cc1c(C#N)c2ccc3cc(OCCCCCC(=O)O)ccc3c2c2c1ccc1cc(OCCCCCC(=O)O)ccc12 [compound 6, 6,6′-((3,4-dicyanodibenzo[c,g]phenanthrene-8,13-diyl)bis(oxy))dihexanoic acid]
- binding of antibody conjugating molecular reporter to antigen (FIG. 5) (antigen): antibody could bind to antigen
- effect of molecular reporter on binding reactivity of antibody compared with antibody without any conjugation (FIG. 5) (antigen): did not affect the binding reactivity of antibody
